Data taken from US10392391B2 (Vertex Pharmaceuticals Incorporated, priority 2012, dated 2019).

Each molecule was assayed against ATR kinase (full-length ATR) (Homo sapiens (Human), UniProt Q13535) (assay: ATR inhibition assay (radioactive-phosphate incorporation)). Conditions: not given.
Format: biochemical
How it was run: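 Ki(app) was fitted by non-linear regression to background-corrected initial rates. Full-length ATR (5 nM) phosphorylated 800 μM peptide using 10 μM [γ-33P]ATP at 25° C in Tris/HCl pH 7.5 buffer with MgCl2, DTT and 7% DMSO. After 10-minute compound pre-incubation and 24-hour reaction, phosphocellulose filters were scintillation counted.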

ATR kinase (full-length ATR), sequence (Q13535 whole entry): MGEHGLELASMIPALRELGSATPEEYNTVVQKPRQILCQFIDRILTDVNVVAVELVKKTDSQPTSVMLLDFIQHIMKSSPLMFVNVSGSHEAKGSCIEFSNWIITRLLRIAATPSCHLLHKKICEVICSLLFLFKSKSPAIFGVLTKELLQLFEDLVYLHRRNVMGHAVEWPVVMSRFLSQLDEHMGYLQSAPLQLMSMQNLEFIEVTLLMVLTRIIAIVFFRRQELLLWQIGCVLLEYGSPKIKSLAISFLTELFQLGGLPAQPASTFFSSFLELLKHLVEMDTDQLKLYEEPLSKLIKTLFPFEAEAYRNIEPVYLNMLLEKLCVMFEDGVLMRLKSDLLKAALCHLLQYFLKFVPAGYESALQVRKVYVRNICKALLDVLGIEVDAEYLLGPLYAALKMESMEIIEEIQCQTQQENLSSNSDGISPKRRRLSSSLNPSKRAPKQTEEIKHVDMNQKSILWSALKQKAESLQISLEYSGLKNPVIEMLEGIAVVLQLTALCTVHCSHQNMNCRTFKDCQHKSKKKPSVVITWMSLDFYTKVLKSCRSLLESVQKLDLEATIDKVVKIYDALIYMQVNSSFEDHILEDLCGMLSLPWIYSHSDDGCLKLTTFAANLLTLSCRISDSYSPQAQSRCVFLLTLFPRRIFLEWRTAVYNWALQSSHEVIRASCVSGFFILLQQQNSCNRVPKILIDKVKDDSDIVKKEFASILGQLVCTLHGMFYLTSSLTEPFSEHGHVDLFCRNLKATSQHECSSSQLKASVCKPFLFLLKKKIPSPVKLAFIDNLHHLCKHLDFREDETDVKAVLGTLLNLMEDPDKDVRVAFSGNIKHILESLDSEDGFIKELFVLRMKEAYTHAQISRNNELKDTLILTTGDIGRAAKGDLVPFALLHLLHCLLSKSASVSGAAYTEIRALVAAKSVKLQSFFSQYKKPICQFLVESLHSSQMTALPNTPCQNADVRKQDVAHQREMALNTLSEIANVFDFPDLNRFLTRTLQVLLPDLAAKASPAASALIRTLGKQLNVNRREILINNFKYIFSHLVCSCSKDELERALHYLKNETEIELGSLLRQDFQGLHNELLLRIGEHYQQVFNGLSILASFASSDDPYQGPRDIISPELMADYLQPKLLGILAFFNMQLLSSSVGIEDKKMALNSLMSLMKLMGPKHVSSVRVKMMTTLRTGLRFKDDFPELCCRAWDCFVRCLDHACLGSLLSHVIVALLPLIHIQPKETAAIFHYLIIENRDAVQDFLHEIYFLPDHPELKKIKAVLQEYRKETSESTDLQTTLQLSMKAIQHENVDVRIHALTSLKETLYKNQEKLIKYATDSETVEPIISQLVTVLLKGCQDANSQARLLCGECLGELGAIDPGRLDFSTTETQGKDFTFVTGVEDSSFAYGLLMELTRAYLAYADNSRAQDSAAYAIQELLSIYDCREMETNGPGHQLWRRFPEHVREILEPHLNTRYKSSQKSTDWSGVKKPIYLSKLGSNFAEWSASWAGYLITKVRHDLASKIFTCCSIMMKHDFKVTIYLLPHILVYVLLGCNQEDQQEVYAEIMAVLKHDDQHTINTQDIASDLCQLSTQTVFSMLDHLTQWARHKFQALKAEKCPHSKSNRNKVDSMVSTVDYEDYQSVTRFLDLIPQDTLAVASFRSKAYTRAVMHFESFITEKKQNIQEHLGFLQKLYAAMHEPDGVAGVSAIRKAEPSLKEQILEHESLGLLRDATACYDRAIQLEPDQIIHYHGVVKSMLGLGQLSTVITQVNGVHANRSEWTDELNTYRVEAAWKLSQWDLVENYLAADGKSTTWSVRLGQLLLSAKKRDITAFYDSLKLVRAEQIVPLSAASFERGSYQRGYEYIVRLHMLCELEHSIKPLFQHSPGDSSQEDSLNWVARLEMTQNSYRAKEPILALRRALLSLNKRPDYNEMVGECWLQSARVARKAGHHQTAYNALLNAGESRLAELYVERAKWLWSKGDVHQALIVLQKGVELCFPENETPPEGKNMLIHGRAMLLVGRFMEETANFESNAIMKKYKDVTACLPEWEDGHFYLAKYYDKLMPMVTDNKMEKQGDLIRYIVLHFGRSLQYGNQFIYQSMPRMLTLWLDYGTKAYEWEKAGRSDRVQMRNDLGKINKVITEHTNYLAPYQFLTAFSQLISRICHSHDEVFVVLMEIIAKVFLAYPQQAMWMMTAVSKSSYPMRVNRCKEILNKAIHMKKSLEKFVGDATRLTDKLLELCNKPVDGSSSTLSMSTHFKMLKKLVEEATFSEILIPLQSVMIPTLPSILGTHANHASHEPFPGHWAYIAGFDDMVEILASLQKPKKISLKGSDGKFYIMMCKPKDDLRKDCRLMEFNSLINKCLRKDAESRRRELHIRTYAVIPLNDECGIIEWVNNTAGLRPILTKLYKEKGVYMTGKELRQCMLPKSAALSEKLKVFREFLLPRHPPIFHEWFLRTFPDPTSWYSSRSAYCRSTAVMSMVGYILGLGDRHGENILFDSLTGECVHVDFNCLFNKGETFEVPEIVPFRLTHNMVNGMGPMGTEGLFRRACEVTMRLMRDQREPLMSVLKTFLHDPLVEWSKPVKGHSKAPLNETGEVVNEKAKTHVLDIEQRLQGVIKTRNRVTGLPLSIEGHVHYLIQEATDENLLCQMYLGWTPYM

`CN1CC2CN(C(=O)C3CCN(c4c(F)cncc4NC(=O)c4c(N)nn5cc(F)cnc45)CC3)CC2C1` (stereo not shown) [I-G-18, 2-amino-6-fluoro-N-(5-fluoro-4-(4-(5-methyloctahydropyrrolo[3,4-c]pyrrole-2-carbonyl)piperidin-1-yl)pyridin-3-yl)pyrazolo[1,5-a]pyrimidine-3-carboxamide] showed a Ki of 10 to 1000 nM.

Same assay, conditions: Ki(app), 5 nM full-length ATR, 10 μM ATP, 25° C.

`Nc1nn2cc(F)cnc2c1C(=O)Nc1cnccc1-c1ccc(S(=O)(=O)N2CCC2)cc1` [I-C-64, 2-amino-N-(4-(4-(azetidin-1-ylsulfonyl)phenyl)pyridin-3-yl)-6-fluoropyrazolo[1,5-a]pyrimidine-3-carboxamide] and `Nc1nn2cc(F)cnc2c1C(=O)Nc1cnccc1O[C@H]1CN2CCC1CC2` [I-O-5, (R)-2-amino-6-fluoro-N-(4-(quinuclidin-3-yloxy)pyridin-3-yl)pyrazolo[1,5-a]pyrimidine-3-carboxamide] fall in the same range of Ki: 10 to 1000 nM for the first, 10 to 1000 nM for the second.

`CN1CCN(CC2CCN(c3c(F)cncc3NC(=O)c3c(N)nn4cc(F)cnc34)CC2)CC1=O` [I-N-171, 2-amino-6-fluoro-N-(5-fluoro-4-(4-((4-methyl-3-oxopiperazin-1-yl)methyl)piperidin-1-yl)pyridin-3-yl)pyrazolo[1,5-a]pyrimidine-3-carboxamide] and `COCC1CN(C(=O)C2CCN(c3c(F)cncc3NC(=O)c3c(N)nn4cc(F)cnc34)CC2)C1` [I-G-98, 2-amino-6-fluoro-N-(5-fluoro-4-(4-(3-(methoxymethyl)azetidine-1-carbonyl)piperidin-1-yl)pyridin-3-yl)pyrazolo[1,5-a]pyrimidine-3-carboxamide] fall in the same range of Ki: 10 to 1000 nM for the first, 10 to 1000 nM for the second.

`Nc1nn2cc(F)cnc2c1C(=O)Nc1cncc(F)c1N1CCN(C(=O)C2CCN(C3COC3)CC2)CC1` [I-N-211, 2-amino-6-fluoro-N-(5-fluoro-4-(4-(1-(oxetan-3-yl)piperidine-4-carbonyl)piperazin-1-yl)pyridin-3-yl)pyrazolo[1,5-a]pyrimidine-3-carboxamide] and `N#CC1CN(C(=O)C2CCN(c3c(F)cncc3NC(=O)c3c(N)nn4cc(F)cnc34)CC2)C1` [I-G-76, 2-amino-N-(4-(4-(3-cyanoazetidine-1-carbonyl)piperidin-1-yl)-5-fluoropyridin-3-yl)-6-fluoropyrazolo[1,5-a]pyrimidine-3-carboxamide] fall in the same range of Ki: 10 to 1000 nM for the first, 10 to 1000 nM for the second.

`Nc1nn2cc(F)cnc2c1C(=O)Nc1cncc(Cl)c1N1CCC(C(=O)N2CCNCC2)CC1` [I-G-48, 2-amino-N-(5-chloro-4-(4-(piperazine-1-carbonyl)piperidin-1-yl)pyridin-3-yl)-6-fluoropyrazolo[1,5-a]pyrimidine-3-carboxamide] and `CC(=O)N1CCC(c2ccncc2NC(=O)c2c(N)nn3cc(F)cnc23)CC1` [I-C-69, N-(4-(1-acetylpiperidin-4-yl)pyridin-3-yl)-2-amino-6-fluoropyrazolo[1,5-a]pyrimidine-3-carboxamide] fall in the same range of Ki: 10 to 1000 nM for the first, 10 to 1000 nM for the second.

`Nc1nn2cc(Cl)cnc2c1C(=O)Nc1cnccc1N1CCN2CCC[C@@H]2C1` [I-N-65, (R)-2-amino-6-chloro-N-(4-(hexahydropyrrolo[1,2-a]pyrazin-2(1H)-yl)pyridin-3-yl)pyrazolo[1,5-a]pyrimidine-3-carboxamide] and `COCCOc1ccncc1NC(=O)c1c(N)nn2cc(Cl)cnc12` [I-O-55, 2-amino-6-chloro-N-(4-(2-methoxyethoxy)pyridin-3-yl)pyrazolo[1,5-a]pyrimidine-3-carboxamide] fall in the same range of Ki: 10 to 1000 nM for the first, 10 to 1000 nM for the second.

First: C[N+]1([O-])CCc2c(cncc2NC(=O)c2c(N)nn3cc(F)cnc23)C1 (stereo not shown) [I-C-9, 5-(2-amino-6-fluoropyrazolo[1,5-a]pyrimidine-3-carboxamido)-2-methyl-1,2,3,4-tetrahydro-2,7-naphthyridine 2-oxide]
Second: COCCOc1ccncc1NC(=O)c1c(N)nn2cc(CC#N)cnc12 [I-O-29, 2-amino-6-(cyanomethyl)-N-(4-(2-methoxyethoxy)pyridin-3-yl)pyrazolo[1,5-a]pyrimidine-3-carboxamide]
The Ki of the first is higher: 10 to 1000 nM for the first, < 10 nM for the second. The second binds more tightly here.
